From patent publication US20240229063A1, “TRANSGENIC CORN EVENT ZM_CSM63715 AND METHODS FOR DETECTION AND USES THEREOF” (Monsanto Technology LLC, priority 2022, published 2024)

System: Cas 12a gRNA target sites on Zea mays B73 chromosome 8
Experiment: gRNA target site editing rate by Fragment Length Analysis in stably transformed corn plants
Assay type: in vivo
Settings: LbCas12a; for Number of Plants with Target Site Edits: stably transformed corn plants
Text: Agrobacterium T-DNA vectors were designed to evaluate gRNA and LbCas12a nuclease mediated cleavage at the selected target sites. Each T-DNA vector comprised 3 cassettes. The first cassette comprised a plant codon optimized LbCas12a (SEQ ID NO:33) flanked by the same nuclear localization signal sequence (NLS) at the 5′ and 3′ ends (SEQ ID:191), and was operably linked to Zea mays Ubiquitin promoter (SEQ ID NO:192) and a 3′UTR sequence from a rice lipid transfer protein (LTP) gene (SEQ ID NO:193). The second cassette was a unique gRNA cassette targeting one of the 17 targeting sites described in Table 5. The cassette comprised a Zea mays Pol III promoter operably linked to a Cas12a gRNA unit. […] The third cassette was an EPSPS expression cassette encoding a 5-enolpyruvylshikimate-3-phosphate synthase as a selectable marker for selecting transformants in the present of glyphosate.
Corn embryo explants were transformed with the vectors described above by Agrobacterium-mediated transformation. Transformed plants were selected on glyphosate. Leaf samples from regenerated plantlets were harvested, and genomic DNA was extracted for Fragment Length Analysis (FLA). […] The amplicon fragment lengths were subsequently analyzed using capillary electrophoresis, and compared to a wildtype amplicon to identify mutants that had larger or smaller amplicons due to the presence of indels. […] One μl of the PCR product was combined with 0.5 μl of the GeneScan 1200 LIZ Size Standard (Thermo Fisher, MA), 8.5 μl of formamide, and ran on ABI3730 sequencer (Thermo Fisher, MA) to detect amplicon size and analyzed for fragment length variation to identify plants with mutations at the target sites. […] NA denotes that a transformation was performed, but was not successful. gRNA activity was determined by calculating the percentage of plants that contained a target site indel edit out of the total number of plants examined.

Row | Substance | Target Editing Rate (percentage of plants with a target site indel edit out of plants examined) | Number of Plants with Target Site Edits
1 | ZmTS1: LbCas12a gRNA targeting site ZmTS1 (target SEQ ID NO 174, spacer SEQ ID NO 195) (guide ACCGACTTGGGCATATATTATTT; gRNA scaffold not given here) | 11% | 16
2 | ZmTS10: LbCas12a gRNA targeting site ZmTS10 (target SEQ ID NO 183, spacer SEQ ID NO 204) (guide CCACAAGGCTATTCACTCCCTAT; gRNA scaffold not given here) | – | 32
